{"source": "patent US20210361677A1", "about": "“DOSING METHODS FOR TREATING INFLAMMATORY BOWEL CONDITIONS” (priority 2020, published 2021)", "origin": "cited, not measured here", "settings": "enema by prior methods, two patients, FIG. 1", "data": [{"smiles": "Nc1ccc(O)c(C(=O)O)c1", "note": "[5-ASA, 5-aminosalicylic acid]", "values": [{"measurement": "systemic (plasma) levels of 5-ASA after bowel movements", "result": "dramatically lower"}]}]}
